Laboratory results: ChEMBL document CHEMBL3286394, “Synthesis and pharmacological characterization of new neuronal nicotinic acetylcholine receptor ligands derived from Sazetidine-A” (Bioorg Med Chem Lett, 2014)

Key:
[1] = molecular target: Neuronal acetylcholine receptor subunit alpha-7 (Rattus norvegicus, UniProt Q05941); assay: Displacement of [3H]epibatadine from rat alpha7 nAChR expressed in HEK293 cells by scintillation counting analysis; format: cell-based
[2] = molecular target: Neuronal acetylcholine receptor; alpha4/beta2 (Rattus norvegicus, UniProt P09483+P12390); assay: Displacement of [3H]epibatadine from rat alpha4beta2 nAChR expressed in HEK293 cells by scintillation counting analysis; format: cell-based
[3] = species: Rattus norvegicus; assay: Selectivity ratio of Ki for rat alpha3beta4 nAChR to Ki for rat alpha4beta2 nAChR
[4] = Displacement of [3H]epibatadine from rat forebrain nAChR expressed in HEK293 cells by scintillation counting analysis; format: cell-based
[5] = molecular target: Neuronal acetylcholine receptor; alpha3/beta4 (Rattus norvegicus, UniProt P04757+P12392); assay: Displacement of [3H]epibatadine from rat alpha3beta4 nAChR expressed in HEK293 cells by scintillation counting analysis; format: cell-based
Neuronal acetylcholine receptor; alpha3/beta4, sequence (P04757 whole entry): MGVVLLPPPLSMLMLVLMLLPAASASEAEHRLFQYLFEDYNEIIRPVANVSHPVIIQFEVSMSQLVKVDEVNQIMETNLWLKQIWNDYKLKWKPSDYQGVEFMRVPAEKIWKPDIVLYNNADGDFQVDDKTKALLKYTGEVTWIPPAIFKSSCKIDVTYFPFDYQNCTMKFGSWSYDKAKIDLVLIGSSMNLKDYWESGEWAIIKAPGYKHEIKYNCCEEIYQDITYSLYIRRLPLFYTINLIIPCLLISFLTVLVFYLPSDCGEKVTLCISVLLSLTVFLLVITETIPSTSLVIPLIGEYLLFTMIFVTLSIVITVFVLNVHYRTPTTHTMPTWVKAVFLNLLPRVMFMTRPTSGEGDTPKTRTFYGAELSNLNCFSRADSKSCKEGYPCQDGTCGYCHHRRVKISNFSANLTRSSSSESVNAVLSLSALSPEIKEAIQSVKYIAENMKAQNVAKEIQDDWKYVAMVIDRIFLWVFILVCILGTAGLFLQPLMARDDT
Neuronal acetylcholine receptor; alpha3/beta4, sequence (P12392 whole entry): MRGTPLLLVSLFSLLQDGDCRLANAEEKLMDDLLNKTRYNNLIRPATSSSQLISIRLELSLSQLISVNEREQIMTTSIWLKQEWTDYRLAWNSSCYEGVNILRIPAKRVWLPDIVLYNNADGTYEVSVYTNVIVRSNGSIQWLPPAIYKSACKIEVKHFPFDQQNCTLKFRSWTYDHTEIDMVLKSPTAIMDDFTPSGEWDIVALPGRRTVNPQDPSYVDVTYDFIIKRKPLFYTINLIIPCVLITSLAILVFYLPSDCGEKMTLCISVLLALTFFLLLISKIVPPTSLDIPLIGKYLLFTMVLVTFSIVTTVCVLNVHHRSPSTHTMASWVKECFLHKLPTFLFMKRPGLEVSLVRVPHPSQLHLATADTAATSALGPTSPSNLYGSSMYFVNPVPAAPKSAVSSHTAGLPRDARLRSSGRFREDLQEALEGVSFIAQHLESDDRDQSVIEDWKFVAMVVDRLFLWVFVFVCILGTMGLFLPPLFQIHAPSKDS

Neuronal acetylcholine receptor; alpha4/beta2, sequence (P09483 whole entry): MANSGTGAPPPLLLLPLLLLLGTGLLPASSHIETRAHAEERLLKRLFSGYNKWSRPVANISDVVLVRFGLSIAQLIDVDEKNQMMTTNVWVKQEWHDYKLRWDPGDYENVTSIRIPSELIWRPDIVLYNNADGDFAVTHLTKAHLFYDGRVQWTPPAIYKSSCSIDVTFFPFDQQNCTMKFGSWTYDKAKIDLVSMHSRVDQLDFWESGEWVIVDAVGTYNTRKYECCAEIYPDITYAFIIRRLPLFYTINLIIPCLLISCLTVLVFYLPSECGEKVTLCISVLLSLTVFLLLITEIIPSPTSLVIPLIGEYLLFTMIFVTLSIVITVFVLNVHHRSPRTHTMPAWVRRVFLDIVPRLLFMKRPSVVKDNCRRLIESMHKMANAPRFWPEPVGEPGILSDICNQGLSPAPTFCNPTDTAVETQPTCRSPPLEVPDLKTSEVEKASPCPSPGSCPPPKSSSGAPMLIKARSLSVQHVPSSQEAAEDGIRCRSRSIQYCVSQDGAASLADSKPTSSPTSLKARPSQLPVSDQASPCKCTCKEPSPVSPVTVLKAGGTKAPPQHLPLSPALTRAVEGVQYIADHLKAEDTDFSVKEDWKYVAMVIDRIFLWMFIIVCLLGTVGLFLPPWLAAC
Neuronal acetylcholine receptor; alpha4/beta2, sequence (P12390 whole entry): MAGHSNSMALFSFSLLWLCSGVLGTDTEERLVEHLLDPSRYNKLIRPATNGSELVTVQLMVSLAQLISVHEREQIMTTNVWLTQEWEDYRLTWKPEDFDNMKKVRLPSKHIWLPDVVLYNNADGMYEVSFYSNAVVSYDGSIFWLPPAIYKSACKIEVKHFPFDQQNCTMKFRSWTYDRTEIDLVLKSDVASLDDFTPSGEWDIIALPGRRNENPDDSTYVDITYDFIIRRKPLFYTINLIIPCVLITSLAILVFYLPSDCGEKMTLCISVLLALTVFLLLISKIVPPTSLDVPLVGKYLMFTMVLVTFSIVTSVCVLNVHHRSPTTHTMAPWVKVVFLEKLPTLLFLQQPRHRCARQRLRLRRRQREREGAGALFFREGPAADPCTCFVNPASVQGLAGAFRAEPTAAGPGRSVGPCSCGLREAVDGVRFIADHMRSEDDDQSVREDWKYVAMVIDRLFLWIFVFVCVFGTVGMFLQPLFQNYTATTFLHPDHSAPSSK
Neuronal acetylcholine receptor subunit alpha-7, sequence (Q05941 whole entry): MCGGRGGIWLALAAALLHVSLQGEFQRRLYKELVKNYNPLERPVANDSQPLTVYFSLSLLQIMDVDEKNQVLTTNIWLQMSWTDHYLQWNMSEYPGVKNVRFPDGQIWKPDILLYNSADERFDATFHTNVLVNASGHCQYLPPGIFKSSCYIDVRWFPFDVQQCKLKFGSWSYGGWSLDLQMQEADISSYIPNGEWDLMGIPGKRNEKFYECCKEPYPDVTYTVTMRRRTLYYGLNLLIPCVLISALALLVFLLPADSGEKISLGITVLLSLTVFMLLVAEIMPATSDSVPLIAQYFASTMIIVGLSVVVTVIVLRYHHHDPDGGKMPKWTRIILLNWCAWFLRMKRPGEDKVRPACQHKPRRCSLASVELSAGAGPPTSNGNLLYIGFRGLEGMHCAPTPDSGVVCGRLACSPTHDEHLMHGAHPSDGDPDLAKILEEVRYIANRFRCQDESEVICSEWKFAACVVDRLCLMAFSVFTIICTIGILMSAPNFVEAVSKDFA

SMILES | Ki [1] | Ki [2] | Ratio Ki [3] | Ki [4] | Ki [5]
OCCCCc1cn(-c2cncc(OC[C@@H]3CCN3)c2)nn1 | 100000 nM | 1.3 nM | 59000 | 8 nM | 77000 nM
CCCCC#Cc1cncc(OC[C@H]2CCN2)c1 | 13000 nM | 0.5 nM | 10000 | 0.92 nM | 5200 nM
CCCCC#Cc1cncc(OC[C@@H]2CCN2)c1 | 1900 nM | 0.1 nM | 17000 | 0.29 nM | 1700 nM
[N-]=[N+]=NCCCCC#Cc1cncc(OC[C@@H]2CCN2)c1 | 2700 nM | 0.086 nM | 40000 | 0.36 nM | 3400 nM
CCCCC#Cc1cncc(OC[C@@H]2CCCN2)c1 | 35000 nM | 1.2 nM | 15000 | 5.8 nM | 18000 nM
CCCCC#Cc1cncc(OC[C@H]2CCCN2)c1 | 9100 nM | 0.49 nM | 24000 | 7.7 nM | 12000 nM
c1ncc(-c2nnn3c2CCCC3)cc1OC[C@@H]1CCN1 | 51000 nM | 10 nM | 6200 | 48 nM | 64000 nM
